The target of assay [1] is Sodium channel protein type 2 subunit alpha (Homo sapiens) (UniProt Q99250). Description: Inhibition of Nav1.2 channel in HEK cells at 100 uM by patch clamp technique. The class given is cell-based. Details: scale not given: the % may be the effect or the level left. The conditions noted are these: HEK293. (In patch-clamp work, channel activity is measured electrically.)

For assay [2] the target is unchanged. Description: Inhibition of Nav1.2 channel in HEK cells at 10 uM by patch clamp technique. The class given is cell-based. The arrangement: scale not given: the % may be the effect or the level left. The conditions noted are these: HEK293.

In ChEMBL document CHEMBL1142460, “2,4(5)-Diarylimidazoles: synthesis and biological evaluation of a new class of sodium channel blockers against hNa(v)1.2” (Bioorg Med Chem Lett, 2008) one finds Activity data, which are given here for ten molecules.

Chain of Sodium channel protein type 2 subunit alpha (Homo sapiens) (Q99250 whole entry, looked up): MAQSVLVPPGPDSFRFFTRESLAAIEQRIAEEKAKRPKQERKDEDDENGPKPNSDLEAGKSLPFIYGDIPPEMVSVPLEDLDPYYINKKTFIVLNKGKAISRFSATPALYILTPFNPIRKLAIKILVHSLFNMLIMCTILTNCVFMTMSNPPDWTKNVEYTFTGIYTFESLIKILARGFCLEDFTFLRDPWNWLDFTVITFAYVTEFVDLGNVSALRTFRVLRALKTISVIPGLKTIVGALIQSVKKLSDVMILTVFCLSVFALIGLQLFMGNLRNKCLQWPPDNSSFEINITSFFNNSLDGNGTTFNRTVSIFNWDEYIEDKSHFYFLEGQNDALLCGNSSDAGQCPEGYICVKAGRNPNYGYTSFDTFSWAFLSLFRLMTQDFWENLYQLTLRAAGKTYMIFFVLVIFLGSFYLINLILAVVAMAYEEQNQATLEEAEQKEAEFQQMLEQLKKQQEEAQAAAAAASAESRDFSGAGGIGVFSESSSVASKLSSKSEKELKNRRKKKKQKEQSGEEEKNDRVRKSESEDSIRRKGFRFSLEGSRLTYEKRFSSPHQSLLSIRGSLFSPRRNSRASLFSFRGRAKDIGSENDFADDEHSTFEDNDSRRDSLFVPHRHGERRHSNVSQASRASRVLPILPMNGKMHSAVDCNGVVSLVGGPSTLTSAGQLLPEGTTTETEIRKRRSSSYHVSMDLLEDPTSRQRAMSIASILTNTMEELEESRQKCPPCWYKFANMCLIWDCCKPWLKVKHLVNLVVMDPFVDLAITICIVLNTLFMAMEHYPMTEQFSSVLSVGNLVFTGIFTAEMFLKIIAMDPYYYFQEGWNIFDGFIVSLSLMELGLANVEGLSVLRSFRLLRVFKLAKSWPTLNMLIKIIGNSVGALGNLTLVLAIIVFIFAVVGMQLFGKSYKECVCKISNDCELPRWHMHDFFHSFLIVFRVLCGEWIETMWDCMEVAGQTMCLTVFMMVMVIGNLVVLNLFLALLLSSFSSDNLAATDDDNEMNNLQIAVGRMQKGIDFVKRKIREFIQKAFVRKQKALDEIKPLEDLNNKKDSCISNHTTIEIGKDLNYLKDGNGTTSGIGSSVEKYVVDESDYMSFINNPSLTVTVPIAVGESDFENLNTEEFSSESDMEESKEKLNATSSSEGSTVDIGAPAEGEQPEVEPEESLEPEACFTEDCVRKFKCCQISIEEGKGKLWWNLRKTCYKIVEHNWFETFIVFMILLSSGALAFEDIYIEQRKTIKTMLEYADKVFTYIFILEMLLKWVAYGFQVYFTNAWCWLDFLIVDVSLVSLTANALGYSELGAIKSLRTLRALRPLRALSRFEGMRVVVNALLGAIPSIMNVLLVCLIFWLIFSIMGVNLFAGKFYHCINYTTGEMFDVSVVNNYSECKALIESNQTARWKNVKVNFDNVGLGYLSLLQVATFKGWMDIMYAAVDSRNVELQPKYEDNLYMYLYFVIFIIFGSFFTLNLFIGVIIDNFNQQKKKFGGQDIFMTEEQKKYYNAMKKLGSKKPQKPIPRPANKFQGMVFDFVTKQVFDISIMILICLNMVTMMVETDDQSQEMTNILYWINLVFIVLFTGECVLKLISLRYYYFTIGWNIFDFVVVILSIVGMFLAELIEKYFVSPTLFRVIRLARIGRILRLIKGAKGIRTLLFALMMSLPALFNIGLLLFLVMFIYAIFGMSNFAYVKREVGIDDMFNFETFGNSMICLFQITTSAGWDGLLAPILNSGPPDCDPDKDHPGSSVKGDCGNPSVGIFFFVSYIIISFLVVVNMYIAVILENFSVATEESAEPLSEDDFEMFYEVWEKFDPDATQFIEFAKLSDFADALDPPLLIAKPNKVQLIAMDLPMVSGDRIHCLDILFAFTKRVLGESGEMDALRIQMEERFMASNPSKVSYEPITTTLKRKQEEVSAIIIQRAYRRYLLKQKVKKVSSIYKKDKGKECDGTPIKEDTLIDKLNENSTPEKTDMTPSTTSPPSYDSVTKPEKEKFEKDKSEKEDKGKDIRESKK

For `c1ccc(-c2c[nH]c(-c3ccoc3)n2)cc1`, the Activity in assay [1] was 27.3%; in assay [2], 11.9%.

With `c1ccc(-c2c[nH]c(-c3cccnc3)n2)cc1`, the Activity in assay [1] worked out at 22.5%; in assay [2], 4.7%.

For `c1ccc(-c2c[nH]c(-c3ccncc3)n2)cc1`, the Activity in assay [1] was determined as 40.7%; in assay [2] it was 8%.

On to `c1ccc(-c2c[nH]c(C3CCCCC3)n2)cc1`, for which the Activity is 91.5% in assay [1] and 26.7% in assay [2].

As for `c1ccc(-c2c[nH]c(-c3ccccc3)n2)cc1`, the Activity turned out to be 80.5% in assay [1] and 7.8% in assay [2].

In the case of `O=C1NC(=O)C(c2ccccc2)(c2ccccc2)N1`, the Activity came out at 21.2% in assay [1] and 10.6% in assay [2].

Consider `c1ccc(-c2c[nH]c(-c3ccco3)n2)cc1`, for which the Activity turned out to be 37.7% in assay [1] and 2.7% in assay [2].

In the case of `c1ccc(-c2c[nH]c(-c3ccsc3)n2)cc1`, the results for the Activity in assay [1] and in assay [2] were 70.9% and 5.1%, respectively.

With `c1ccc(-c2c[nH]c(-c3cc4ccccc4o3)n2)cc1`, the Activity was 72.4% in assay [1] and 37.7% in assay [2].

`Nc1nnc(-c2cccc(Cl)c2Cl)c(N)n1`: the Activity in assay [1] is 35.1%; in assay [2], 12.1%.
